Earlier results in paper PMC10930872, “Preparation, Structural Identification, and Screening of Egg-Derived Peptides with Facilitating Alcohol Metabolism Activity” (Foods, 2024).
Values belong to the compound of their own block, whether it stands above or below them.

Assays:
[1] = system: hepatic ADH; conditions: ref [42],[43]
Text: This has to do with the fact that eggs contain all EAAs. […] Ala is involved in hepatic gluconeogenesis, which oxidizes NADH + H^+ to NAD^+, thereby maintaining cytoplasmic NAD^+ concentrations and promoting alcohol metabolism. […] It is reported that HAA (Tyr, Trp, Gl ...

[2] = molecular target: T1, alcohol dehydrogenase (ADH) (Saccharomyces cerevisiae, UniProt P00330); conditions: pentapeptide screened by Zan et al., 2023; ref [59]; read-out: EC50 of ADH activation
T1 sequence (P00330 1-348): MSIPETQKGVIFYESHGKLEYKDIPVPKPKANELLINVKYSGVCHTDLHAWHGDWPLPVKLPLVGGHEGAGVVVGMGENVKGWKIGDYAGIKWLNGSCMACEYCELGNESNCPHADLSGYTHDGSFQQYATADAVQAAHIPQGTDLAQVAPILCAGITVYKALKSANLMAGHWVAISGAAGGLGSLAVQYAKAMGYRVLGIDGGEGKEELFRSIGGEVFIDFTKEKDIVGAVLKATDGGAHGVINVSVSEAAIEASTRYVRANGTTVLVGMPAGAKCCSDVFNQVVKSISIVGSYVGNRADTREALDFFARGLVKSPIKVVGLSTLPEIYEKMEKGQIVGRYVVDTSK
Text: GSH, a tripeptide composed of Glu, Cys, and Gly, is widely found in normal human cells, with the highest concentration in the liver. It plays an important role in scavenging free radicals, inhibiting inflammatory factors, relieving hangovers, and protecting the liver.

[3] = system: ethanol dehydrogenase; design: method as in doi:10.1016/j.lwt.2022.113376; conditions: ref [36]

Compound: CC(C)C[C@H](N)C(=O)O [Leu, L-leucine]
Hepatic ADH activity [1]: significantly increase hepatic ADH activity

EC50 [2]: 1600 nM
Compound: ILPHF [pentapeptide screened by Zan et al., 2023]

Compound: Lys-Pro-Cys [KPC, chicken-derived tripeptide]
Stability of ethanol dehydrogenase [3]: enhanced the stability of ethanol dehydrogenase
